Assay results: patent US8084459B2, “Substituted quinazolinones for treating neurological conditions” (Prana Biotechnology Ltd, priority 2004, dated 2011)

Key:
[1] = Assay 16 mouse plasma levels of test compounds; assay type: in vivo; details: for Conc. in mouse plasma / concentration at 30 min / concentration at 60 min: single mouse; for Assay 16 Mice plasma concentration: highest level found in mice (Up to), oral dosing 30 mg/kg described for PB 1075-1077; for concentration at 30 min / concentration at 60 min: mouse, plasma, po, 30 mg/kg, read-out: Conc. in mouse plasma
Summary of the method: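 Compound given orally by gavage at 30 mg/kg as CMC suspension to four mice; two sacrificed at 30 min and two at 60 min, plasma from cardiac blood. Plasma levels by LC/MS (triple quadrupole, C8 column, ACN/water 0.05% formic acid gradient) after ACN protein precipitation.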

[2] = tested on: soluble and insoluble Aβ in the brain; assay: Assay 11 effect on Aβ deposits in transgenic animals (soluble and insoluble Aβ, Western blot); assay type: in vivo, APP2576 transgenic mouse; details: APP2576 mice; for Tg mice Insoluble Fraction: % change compared with vehicle alone control mice: insoluble Aβ; for Tg mice Soluble Fraction: % change compared with vehicle alone control mice: soluble Aβ
[3] = Assay 3(d) test compound cytotoxicity (MTS); assay type: cell-based; details: BL6Jx129sv, mouse, primary cortical neuronal cultures, cortical neurons; for viability at 4 days, 1 µM: read-out: Assay 3(d) Cytotoxicity (% viable at 1 uM); for viability at 4 days, 10 µM: read-out: Assay 3(d) Cytotoxicity (% viable at 10 uM)
Summary of the method: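 E14 mouse (BL6Jx129sv) primary cortical neurons cultured 5 days, then exposed on day 6 to compound prediluted in Neurobasal/B27 without antioxidants, working solutions 2.5, 25, 250 uM, in triplicate for 4 days at 37 °C. Viability by MTS, 2 h at 37 °C, absorbance 560 nm.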

[4] = tested on: Aβ plaques; assay: Assay 14 transgenic mouse brain immunohistochemistry (plaque score); assay type: in vivo; details: APP2576 mice
Description: Assay 14. Transgenic Mouse Brain Immunohistochemistry
The APP2576 transgenic mouse (Hsiao et al., 1996) as referred to in Assay 11 is utilized in this assay. The contralateral formalin-fixed mouse brain tissue is coronally cut. Sections (10 μm) are taken from the corresponding sites and treated with 80% formic acid for antigen retrieval. The primary antibody used is monoclonal antibody 1E8, which recognizes epitopes between residues 18 and 22 of Aβ (SmithKline Beecham, UK). Immunoreactivity is developed with secondary antibody linked to horseradish peroxidase (using a 3,39-diaminobenzidinechromagen) (Dako) and alkaline phosphatase (using 5-bromo-4-chloro 3-indoxyl phosphate and nitroblue tetrazolium chloride chromagen) (Dako). Plaque abundance per section is assessed by two operators blinded to treatment according to the following scale:
1=plaques present but very sparse
2=several plaques present
3=numerous plaques visible in restricted areas
4=plaques abundant and not restricted to any particular area.
Intermediate values eg 2.5 are assigned where applicable. Students ‘t’ test is used for comparisons between groups.

[5] = 30 min after oral dosing at 30 mg/kg
[6] = 60 min after oral dosing at 30 mg/kg

Structure (SMILES) | Conc. in mouse plasma ([1]; 30 min after oral dosing at 30 mg/kg, listed as PB 1075, 30 mg/kg) | Conc. in mouse plasma ([1]; 60 min after oral dosing at 30 mg/kg, listed as PB 1075, 30 mg/kg) | Assay 16 Mice plasma concentration [1] | concentration at 30 min [1, 5] | concentration at 60 min [1, 6] | Tg mice Insoluble Fraction: % change compared with vehicle alone control mice [2] | Tg mice Soluble Fraction: % change compared with vehicle alone control mice [2] | viability at 4 days, 1 µM [3] | viability at 4 days, 10 µM [3] | Plaques score: average count score per treatment group relative to the vehicle (sham) treated group [4] | Conc. in mouse plasma ([1]; 30 min after oral dosing at 30 mg/kg, listed as PB 1077, 30 mg/kg) | Conc. in mouse plasma ([1]; 60 min after oral dosing at 30 mg/kg, listed as PB 1077, 30 mg/kg)
O=c1c2c(Cl)cc(Cl)c(O)c2ncn1CCN1CCCC1 [Compound 1075] | 298.46 ng/mL | 424.81 ng/mL | Up to 520 ng/mL | 431 ng/mL | 520 ng/mL | +9% (insol), | −19% (sol), | 99% | 87% | −22% (plaque) |  | 
O=c1c2c(Cl)cc(Cl)c(O)c2ncn1Cc1ccccn1 [Compound 1077] |  |  | Up to 984 ng/mL | 731 ng/mL | 495 ng/mL | Negligible effect on | −17% (sol), | 101% | 86% | −30% (plaque) | 984.7 ng/mL | 752.8 ng/mL
Cc1nc(Cn2cnc3c(O)c(Cl)cc(Cl)c3c2=O)cs1 [Compound 1084] |  |  | Upto 2439 ng/mL |  |  | −17% (insol), | −29% (sol) | 100% | 93% | −21% (plaque) |  | 
Cc1noc(C)c1Cn1cnc2c(O)c(Cl)cc(Cl)c2c1=O [Compound 1085] |  |  | Upto 3644 ng/mL |  |  |  |  | 99% | 72% |  |  | 
Br.CCCn1cnc2c(O)c(Cl)cc(Cl)c2c1=O [Compound 1097] |  |  | Upto 261 ng/mL in |  |  | +1% (insol) | −22% (sol) | 99% | 78% | −3% (plaque) |  | 
